Laboratory results: US9597327B2, “Synthesis of (R)-N-methylnaltrexone” (Progenics Pharmaceuticals, Inc., priority 2005, dated 2017)
Structures can show the parent of a compound that is named as a salt.

Key:
chronic opioid user = details: intravenously; subjects receiving opioids chronically; cited from earlier work
[1] = opioid agonist / antagonist character of the MNTX stereoisomers (stated, no method given); details: statement in words, no assay described

Structure (SMILES) | dose required to induce immediate laxation (chronic opioid user) | opioid activity (agonist or antagonist) [1]
C[N+]1(CC2CC2)CC[C@]23c4c5ccc(O)c4O[C@H]2C(=O)CC[C@@]3(O)[C@H]1C5 (stereo partly drawn) [MNTX, Methylnaltrexone] | about 0.15 mg/kg | 
C[N+]1(CC2CC2)CC[C@]23c4c5ccc(O)c4O[C@H]2C(=O)CC[C@@]3(O)[C@H]1C5 (stereo partly drawn) [R-MNTX, morphinanium, 17R, 17-(cyclopropylmethyl)-4,5-epoxy-3,14-dihydroxy-17-methyl-6-oxo-, salt, (5α)-(9Cl)] |  | opioid antagonist
C[N@@+]1(CC2CC2)CC[C@]23c4c5ccc(O)c4OC2C(=O)CCC3(O)C1C5 (stereo partly drawn) [S-MNTX] |  | opioid agonist
